pIC50: −log10 of the molar value.

For experiment [1], the target named is T1, CDK2/CycE (Homo sapiens, UniProt P24941).
T1 construct: purchased ProQinase GmbH (Freiburg, Germany); host or cells: insect cells (Sf9)
Description: CDK2/CycE kinase assay (TR-FRET, 2 mM ATP). It counts as biochemical. The note with it: 2 mM ATP (high ATP); median; read-out: CDK2/CyclinE, 2 mM ATP (high ATP), IC50 (median). In a few lines: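 Biotin-peptide phosphorylation (0.75 µM substrate, 2 mM ATP final, 25 min, 22 °C) by Sf9-expressed GST-CDK2/GST-CycE, after a 15-min compound pre-binding step. Inhibition scaled between enzyme-free (100%) and uninhibited (0%) wells.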
Background: TR-FRET usually uses a lanthanide donor and a delayed reading to cut background.

Experiment [2] has as its target T2, CDK9/CycT1 (Homo sapiens, UniProt P50750).
T2 construct: Recombinant full-length His-tagged human CDK9 and CycT1; purchased Life Technologies PV4131; host or cells: insect cells
Nature of the experiment: CDK9/CycT1 high ATP kinase assay (TR-FRET, 2 mM ATP). It is filed as biochemical. The note with it: 2 mM ATP (high ATP); median; read-out: CDK9/CyclinT1, 2 mM ATP (high ATP), IC50 (median). The essentials:
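Full-length His-tagged human CDK9/CycT1 (insect cell, ~0.5 μg/mL) preincubated 15 min at 22 °C with compound in Tris pH 8.0, MgCl2, DTT buffer before reaction with biotinylated peptide substrate at high ATP (2 mM).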

For experiment [3], the system named is BRCA1 mRNA expression in MDA-MB-231 cells. Nature of the experiment: qRT-PCR assay: BRCA1 mRNA expression in MDA-MB-231. It counts as cell-based, human. The note with it: Homo sapiens, MDA-MB-231, Inhibition of BRCA1 mRNA expression in MDA-MB-231 cells; median; read-out: RTqPCR-MDA-MB-231, IC50, BRCA1 (median). The essentials:
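BRCA1 transcript by RT-qPCR relative to GAPDH, from 600 ng RNA converted to cDNA. MDA-MB-231 cells plated at 200,000/well received test compound continuously for 24 h, starting 24 h post-seeding.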

T2 sequence (P50750 whole entry): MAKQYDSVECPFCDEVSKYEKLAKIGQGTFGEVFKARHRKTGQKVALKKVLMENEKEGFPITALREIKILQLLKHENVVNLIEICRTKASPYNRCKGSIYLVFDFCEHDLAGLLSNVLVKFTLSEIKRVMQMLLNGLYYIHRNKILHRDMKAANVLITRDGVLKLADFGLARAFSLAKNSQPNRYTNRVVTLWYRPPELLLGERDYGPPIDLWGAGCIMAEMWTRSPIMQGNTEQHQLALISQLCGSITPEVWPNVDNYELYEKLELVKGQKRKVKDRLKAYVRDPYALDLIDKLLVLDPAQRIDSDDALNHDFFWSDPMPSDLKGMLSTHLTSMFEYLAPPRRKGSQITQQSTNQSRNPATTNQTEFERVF
T2 sequence (O60563 whole entry partner): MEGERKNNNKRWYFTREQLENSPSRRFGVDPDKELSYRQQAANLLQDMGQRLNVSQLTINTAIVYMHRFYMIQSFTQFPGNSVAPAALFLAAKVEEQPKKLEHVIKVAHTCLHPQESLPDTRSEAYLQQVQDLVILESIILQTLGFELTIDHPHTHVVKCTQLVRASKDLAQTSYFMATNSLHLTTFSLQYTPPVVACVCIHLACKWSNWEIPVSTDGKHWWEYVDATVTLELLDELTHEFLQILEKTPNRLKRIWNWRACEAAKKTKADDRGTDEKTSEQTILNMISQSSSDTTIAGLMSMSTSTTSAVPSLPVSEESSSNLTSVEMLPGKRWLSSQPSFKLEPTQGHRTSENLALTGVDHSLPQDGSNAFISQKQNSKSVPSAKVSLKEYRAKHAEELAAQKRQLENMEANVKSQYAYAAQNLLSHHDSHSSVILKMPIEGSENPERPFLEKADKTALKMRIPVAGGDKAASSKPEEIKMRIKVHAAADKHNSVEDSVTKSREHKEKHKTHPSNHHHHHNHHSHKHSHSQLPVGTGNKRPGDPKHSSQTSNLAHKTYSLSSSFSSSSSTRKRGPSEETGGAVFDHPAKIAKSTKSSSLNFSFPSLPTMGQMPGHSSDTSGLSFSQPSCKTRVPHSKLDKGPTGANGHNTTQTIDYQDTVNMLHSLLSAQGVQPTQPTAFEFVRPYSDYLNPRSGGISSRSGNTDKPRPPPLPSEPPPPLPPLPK

As for `CC1CN(c2nc(NCc3nc4ccccc4[nH]3)n3ncc(C(C)C)c3n2)CCO1` (racemic) [Example 11, (rac)-N-[(1H-benzimidazol-2-yl)methyl]-2-[2-methylmorpholin-4-yl]-8-(propan-2-yl)pyrazolo[1,5-a][1,3,5]triazin-4-amine], the pIC50 is 5.26 in experiment [1], less than 4.70 in experiment [2] and 7.50 in experiment [3].
Consider `COC(C)(C)CNc1nc(NCc2nc3ccccc3[nH]2)n2ncc(Br)c2n1` [Example 236, N4-(1H-benzimidazol-2-ylmethyl)-8-bromo-N2-(2-methoxy-2-methyl-propyl)pyrazolo[1,5-a][1,3,5]triazine-2,4-diamine], for which the figures for the pIC50 in experiment [1], in experiment [2] and in experiment [3] were 4.89, less than 4.70 and 7.69, respectively.
In the case of `COc1cccc2[nH]c(CNc3nc(N4C[C@H]5C[C@@H]4CO5)nc4c(C5CC5)cnn34)nc12` [Example 198, 8-cyclopropyl-N-[(4-methoxy-1H-benzimidazol-2-yl)methyl]-2-[(1R,4R)-2-oxa-5-azabicyclo[2.2.1]heptan-5-yl]pyrazolo[1,5-a][1,3,5]triazin-4-amine], the pIC50 in experiment [1] is 5.00; in experiment [2], less than 4.70; in experiment [3], 7.22.
The matching figures for `OC1CCCN(c2nc(NCc3nc4ccccc4[nH]3)n3ncc(Br)c3n2)C1` (racemic) [Example 16, (rac)-1-(4-{[(1H-benzimidazol-2-yl)methyl]amino}-8-bromopyrazolo[1,5-a][1,3,5]triazin-2-yl)piperidin-3-ol]: 5.82, less than 4.70 and 8.27.
`Cc1ccc2[nH]c(CNc3nc(N4CCNCC4)nc4c(Br)cnn34)nc2c1` [Example 204, 8-bromo-N-[(5-methyl-1H-benzimidazol-2-yl)methyl]-2-(piperazin-1-yl)pyrazolo[1,5-a][1,3,5]triazin-4-amine]: the pIC50 in experiment [1] was 4.96; in experiment [2] it was less than 4.70; in experiment [3], 8.95.
`CN1CCN(c2nc(NCc3nc4ccccc4[nH]3)n3ncc(-c4ccncc4)c3n2)CC1` [Example 242, N-[(1H-benzimidazol-2-yl)methyl]-2-(4-methylpiperazin-1-yl)-8-(pyridin-4-yl)pyrazolo[1,5-a][1,3,5]triazin-4-amine]: the pIC50 in experiment [1] was less than 4.70; in experiment [2], less than 4.70; in experiment [3] it was 6.29.
Turning to `O=C1CN(c2nc(NCc3nc4ccccc4[nH]3)n3ncc(Br)c3n2)CCN1` [Example 167, 4-(4-{[(1H-benzimidazol-2-yl)methyl]amino}-8-bromopyrazolo[1,5-a][1,3,5]triazin-2-yl)piperazin-2-one], the pIC50 in experiment [1] is 4.80; in experiment [2] it was less than 4.70; in experiment [3] it was 6.37.
As for `C[C@H]1CN(c2nc(NCc3nc4ccccc4[nH]3)n3ncc(Br)c3n2)CCN1` [Example 169, N-[(1H-benzimidazol-2-yl)methyl]-8-bromo-2-[(3S)-3-methylpiperazin-1-yl]pyrazolo[1,5-a][1,3,5]triazin-4-amine], the results for the pIC50 in experiment [1], in experiment [2] and in experiment [3] were 4.88, less than 4.70 and 8.48, respectively.
Consider `CN1CC2CCC1CN2c1nc(NCc2nc3ccccc3[nH]2)n2ncc(Br)c2n1` (stereo not shown) [Example 221, N-(1H-benzimidazol-2-ylmethyl)-8-bromo-2-(5-methyl-2,5-diazabicyclo[2.2.2]octan-2-yl)pyrazolo[1,5-a][1,3,5]triazin-4-amine], for which the pIC50 in experiment [1] was 5.30; in experiment [2] it was less than 4.70; in experiment [3], 7.93.
Take `Cc1ccc2[nH]c(CNc3nc(N4C[C@@H](C)N[C@@H](C)C4)nc4c(Br)cnn34)nc2c1` [Example 209, 8-bromo-2-[(3R,5S)-3,5-dimethylpiperazin-1-yl]-N-[(5-methyl-1H-benzimidazol-2-yl)methyl]pyrazolo[1,5-a][1,3,5]triazin-4-amine]: the values for the pIC50 in experiment [1], in experiment [2] and in experiment [3] were less than 4.70, less than 4.70 and 8.78, respectively.
Consider `Cc1ccc2[nH]c(CNc3nc(N4C[C@@H](C)N[C@@H](C)C4)nc4c(C5CC5)cnn34)nc2c1` [Example 194, 8-cyclopropyl-2-[(3R,5S)-3,5-dimethylpiperazin-1-yl]-N-[(5-methyl-1H-benzimidazol-2-yl)methyl]pyrazolo[1,5-a][1,3,5]triazin-4-amine], for which the pIC50 in experiment [1] is less than 4.70; in experiment [2], less than 4.70; in experiment [3], 9.08.
Regarding `OC[C@@H]1CCCCN1c1nc(NCc2nc3c(F)cccc3[nH]2)n2ncc(C3CC3)c2n1` [Example 189, [(2S)-1-(8-cyclopropyl-4-{[(4-fluoro-1H-benzimidazol-2-yl)methyl]amino}pyrazolo[1,5-a][1,3,5]triazin-2-yl)piperidin-2-yl]methanol], the values for the pIC50 in experiment [1], in experiment [2] and in experiment [3] were 6.12, 5.66 and 8.70, respectively.
Take `Cc1ccc2[nH]c(CNc3nc(N4C[C@H]5C[C@@H]4CO5)nc4c(Br)cnn34)nc2c1` [Example 192, 8-bromo-N-[(5-methyl-1H-benzimidazol-2-yl)methyl]-2-[(1R,4R)-2-oxa-5-azabicyclo[2.2.1]heptan-5-yl]pyrazolo[1,5-a][1,3,5]triazin-4-amine]: the values for the pIC50 in experiment [1], in experiment [2] and in experiment [3] were 5.38, less than 4.70 and 8.69, respectively.
On to `COc1cccc2[nH]c(CNc3nc(N4CCNCC4)nc4c(C5CC5)cnn34)nc12` [Example 211, 8-cyclopropyl-N-[(4-methoxy-1H-benzimidazol-2-yl)methyl]-2-(piperazin-1-yl)pyrazolo[1,5-a][1,3,5]triazin-4-amine], for which the pIC50 is 5.07 in experiment [1], less than 4.70 in experiment [2] and 8.37 in experiment [3].
The matching figures for `COc1cccc2[nH]c(CNc3nc(N4C[C@@H](C)N[C@@H](C)C4)nc4c(C5CC5)cnn34)nc12` [Example 212, 8-cyclopropyl-2-[(3R,5S)-3,5-dimethylpiperazin-1-yl]-N-[(4-methoxy-1H-benzimidazol-2-yl)methyl]pyrazolo[1,5-a][1,3,5]triazin-4-amine]: less than 4.72, less than 4.70 and 8.26.
As for `COc1cccc2[nH]c(CNc3nc(N4CCOCC4)nc4c(C5CC5)cnn34)nc12` [Example 213, 8-cyclopropyl-N-[(4-methoxy-1H-benzimidazol-2-yl)methyl]-2-morpholino-pyrazolo[1,5-a][1,3,5]triazin-4-amine], the pIC50 is 5.26 in experiment [1], less than 4.70 in experiment [2] and 7.82 in experiment [3].
Turning to `CN1C[C@@H]2C[C@H]1CN2c1nc(NCc2nc3ccccc3[nH]2)n2ncc(Br)c2n1` [Example 219, N-[(1H-benzimidazol-2-yl)methyl]-8-bromo-2-[(1S,4S)-5-methyl-2,5-diazabicyclo[2.2.1]heptan-2-yl]pyrazolo[1,5-a][1,3,5]triazin-4-amine], the results for the pIC50 in experiment [1], in experiment [2] and in experiment [3] were less than 4.70, less than 4.70 and 7.94, respectively.
Turning to `CC1(C)CN(c2nc(NCc3nc4ccccc4[nH]3)n3ncc(Br)c3n2)CCN1` [Example 216, N-[(1H-benzimidazol-2-yl)methyl]-8-bromo-2-(3,3-dimethylpiperazin-1-yl)pyrazolo[1,5-a][1,3,5]triazin-4-amine], the pIC50 was 4.82 in experiment [1], less than 4.70 in experiment [2] and 8.13 in experiment [3].
Consider `OC[C@@H]1CCCCN1c1nc(NCc2nc3cc(F)ccc3[nH]2)n2ncc(C3CC3)c2n1` [Example 191, [(2S)-1-(8-cyclopropyl-4-{[(5-fluoro-1H-benzimidazol-2-yl)methyl]amino}pyrazolo[1,5-a][1,3,5]triazin-2-yl)piperidin-2-yl]methanol], for which the pIC50 in experiment [1] is 5.75; in experiment [2], 5.13; in experiment [3], 8.66.
`Fc1ccc2[nH]c(CNc3nc(N4C[C@@H]5CCCN[C@@H]5C4)nc4c(C5CC5)cnn34)nc2c1F` [Example 171, 8-cyclopropyl-N-[(4,5-difluoro-1H-benzimidazol-2-yl)methyl]-2-[(4aS,7aS)-octahydro-6H-pyrrolo[3,4-b]pyridin-6-yl]pyrazolo[1,5-a][1,3,5]triazin-4-amine]: the pIC50 is less than 4.70 in experiment [1], less than 4.70 in experiment [2] and 8.99 in experiment [3].
As to `CN1CCCC2CN(c3nc(NCc4nc5ccccc5[nH]4)n4ncc(Br)c4n3)CC21` (stereo not shown) [Example 231, N-[(1H-benzimidazol-2-yl)methyl]-8-bromo-2-(1-methyloctahydro-6H-pyrrolo[3,4-b]pyridin-6-yl)pyrazolo[1,5-a][1,3,5]triazin-4-amine], the pIC50 in experiment [1] is 4.91; in experiment [2], less than 4.70.
On to `CC(C)c1cnn2c(NCc3nc4ccccc4[nH]3)nc(Nc3ccccc3)nc12` [Example 13, N^4-[(1H-benzimidazol-2-yl)methyl]-N^2-phenyl-8-(propan-2-yl)pyrazolo[1,5-a][1,3,5]triazine-2,4-diamine], for which the pIC50 in experiment [1] and in experiment [2] was less than 4.70 throughout.
